Assay [1] addresses T1, h-GABA-A α5β3γ2 (Homo sapiens, UniProt P18507+P31644). The experiment in a line: Two-electrode voltage clamp electrophysiology in Xenopus laevis oocytes expressing GABAA receptors, modulation of GABA EC20 current. The assay is classed as cell-based. The arrangement: host or cells: Xenopus laevis oocytes micro-injected with RNA transcripts of the subunits. The following applies: Table 1; for Efficacy (GABA) %: % modulation of GABA EC20 = 100*(Fold increase-1); for Fold increase h-GABA-A α5β3γ2 oocyte: test compound at approx. 30 fold its Ki, GABA at EC20. A digest of the protocol: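 Modulation is reported as % of the GABA EC20 current, calculated as 100*(Fold increase−1) from the peak ratio between a second GABA response carrying compound (applied at roughly 30-fold Ki) and a preceding control response. Oocytes expressing human α5β3γ2 were clamped at −80 mV at room temperature, 3–5 days after injection.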
For orientation: Two-electrode voltage clamp holds a large cell at a set potential and records current.

In assay [2] the target is T1, h-GABA-A α5β3γ2. The assay is described as follows: [3H]flumazenil competition binding assay, membranes of HEK293 cells expressing GABAA receptors. The following applies: displacement of [3H]-Flumazenil 0.5 nM, HEK293 cells expressing human receptors, mean of two determinations; Table 1. A digest of the protocol:
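Receptor source: human α5β3γ2 transiently transfected into HEK293 cells, membranes in pH 7.5 Krebs-tris. Filtration through GF/C, then scintillation counting.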
On the technique in general: In a radioligand displacement assay an active substance lowers the binding of a labelled ligand.

Broadly, the Ki is the dissociation constant of the complex between target and ligand, obtained from inhibition or displacement. A high value points to a looser hold on the target. Take `CNc1cnn(Cc2c(-c3ccc(C)nc3)noc2C)c(=O)c1` [Example 78, 2-((5-methyl-3-(6-methylpyridin-3-yl)isoxazol-4-yl)methyl)-5-(methylamino)pyridazin-3(2H)-one]: at h-GABA-A α5β3γ2 [1], the “Efficacy (GABA) %” value was determined as 92% and the “Fold increase h-GABA-A α5β3γ2 oocyte” value was determined as 1.92. The compound also gave an inhibition constant (Ki) on h-GABA-A α5β3γ2 [2] of 0.0646 µM.

Take `CCOc1ccc(-c2cnn(Cc3c(-c4ccc(C)nc4)noc3C)c(=O)c2)cc1` [Example 79, 5-(4-ethoxyphenyl)-2-((5-methyl-3-(6-methylpyridin-3-yl)isoxazol-4-yl)methyl)pyridazin-3(2H)-one]: at h-GABA-A α5β3γ2 [1], the “Efficacy (GABA) %” value was 111% and the “Fold increase h-GABA-A α5β3γ2 oocyte” value is 2.11. This compound registered a Ki at h-GABA-A α5β3γ2 [2] of 0.0161 µM.

On to `COc1ccc(-c2cnn(Cc3c(-c4ccc(C)nc4)noc3C)c(=O)c2)cc1F` [Example 80, 5-(3-fluoro-4-methoxyphenyl)-2-((5-methyl-3-(6-methylpyridin-3-yl)isoxazol-4-yl)methyl)pyridazin-3(2H)-one], for which, at h-GABA-A α5β3γ2 [1], the “Efficacy (GABA) %” value was found to be 133% and the “Fold increase h-GABA-A α5β3γ2 oocyte” value is listed as 2.33. At h-GABA-A α5β3γ2 [2], this compound showed a Ki of 0.0086 µM.

With `COc1ccc(-c2cnn(Cc3c(-c4ccc(C)nc4)noc3C)c(=O)c2)cn1` [Example 81, 5-(6-methoxypyridin-3-yl)-2-((5-methyl-3-(6-methylpyridin-3-yl)isoxazol-4-yl)methyl)pyridazin-3(2H)-one], on h-GABA-A α5β3γ2 [1], the “Efficacy (GABA) %” value was 123% and the “Fold increase h-GABA-A α5β3γ2 oocyte” value is recorded as 2.23. The compound further yielded a Ki at h-GABA-A α5β3γ2 [2] of 0.0242 µM.

For `Cc1ccc(-c2noc(C)c2Cn2ncc(N3CC4(CN(C)C4)C3)cc2=O)cn1` [Example 82, 5-(6-methyl-2,6-diazaspiro[3.3]heptan-2-yl)-2-[[5-methyl-3-(6-methyl-3-pyridyl)isoxazol-4-yl]methyl]pyridazin-3-one], at h-GABA-A α5β3γ2 [1], the “Efficacy (GABA) %” value was 245% and the “Fold increase h-GABA-A α5β3γ2 oocyte” value is on record as 3.45. The compound further came in with a Ki at h-GABA-A α5β3γ2 [2] of 0.0328 µM.

Consider `Cc1ccc(-c2noc(C)c2Cn2ncc(-c3ccc(C(F)(F)F)cc3)cc2=O)cn1` [Example 83], for which, on h-GABA-A α5β3γ2 [1], the “Efficacy (GABA) %” value was determined as 50% and the “Fold increase h-GABA-A α5β3γ2 oocyte” value is reported as 1.5. Further, at h-GABA-A α5β3γ2 [2], the Ki stood at 0.0172 µM.

Turning to `COc1ccc(-c2cnn(Cc3c(-c4ccc(C)nc4)noc3C)c(=O)c2)nc1` [Example 84, 5-(5-methoxypyridin-2-yl)-2-((5-methyl-3-(6-methylpyridin-3-yl)isoxazol-4-yl)methyl)pyridazin-3(2H)-one], on h-GABA-A α5β3γ2 [1], the “Efficacy (GABA) %” value stood at 89% and the “Fold increase h-GABA-A α5β3γ2 oocyte” value is reported as 1.89. This compound also yielded a Ki at h-GABA-A α5β3γ2 [2] of 0.085 µM.

For the compound `Cc1ccc(-c2noc(C)c2Cn2ncc(N3CC(C#N)C3)cc2=O)cn1` [Example 85, 1-[1-[[5-methyl-3-(6-methyl-3-pyridyl)isoxazol-4-yl]methyl]-6-oxo-pyridazin-4-yl]azetidine-3-carbonitrile], on h-GABA-A α5β3γ2 [1], the “Efficacy (GABA) %” value is on record as 134% and the “Fold increase h-GABA-A α5β3γ2 oocyte” value is 2.34. On h-GABA-A α5β3γ2 [2], the Ki came out at 0.0181 µM.

As for `Cc1onc(-c2ccc(Cl)cn2)c1Cn1ncc(N2CC3(C2)CN(C2CC2)C3)cc1=O` [Example 86, 2-[[3-(5-chloro-2-pyridyl)-5-methyl-isoxazol-4-yl]methyl]-5-(2-cyclopropyl-2,6-diazaspiro[3.3]heptan-6-yl)pyridazin-3-one], on h-GABA-A α5β3γ2 [1], the “Efficacy (GABA) %” value came out at 87% and the “Fold increase h-GABA-A α5β3γ2 oocyte” value was determined as 1.87. The inhibitory constant (Ki) at h-GABA-A α5β3γ2 [2] came to 0.0119 µM.

Regarding `Cc1cc(-c2noc(C)c2Cn2ncc(N3CC4(C3)CN(C3CC3)C4)cc2=O)no1` [Example 87, 5-(2-cyclopropyl-2,6-diazaspiro[3.3]heptan-6-yl)-2-[[5-methyl-3-(5-methylisoxazol-3-yl)isoxazol-4-yl]methyl]pyridazin-3-one], at h-GABA-A α5β3γ2 [1], the “Efficacy (GABA) %” value turned out to be 105% and the “Fold increase h-GABA-A α5β3γ2 oocyte” value was 2.05. Besides, on h-GABA-A α5β3γ2 [2], the affinity corresponds to a Ki of 0.039 µM.

With `Cc1ccc(-c2noc(C)c2Cn2ncc(NCC3CCOCC3)cc2=O)cn1` [Example 88, 2-((5-methyl-3-(6-methylpyridin-3-yl)isoxazol-4-yl)methyl)-5-(((tetrahydro-2H-pyran-4-yl)methyl)amino)pyridazin-3(2H)-one], on h-GABA-A α5β3γ2 [1], the “Efficacy (GABA) %” value is given as 103% and the “Fold increase h-GABA-A α5β3γ2 oocyte” value is on record as 2.03. The same compound returned an inhibitory constant (Ki) at h-GABA-A α5β3γ2 [2] of 0.0334 µM.

As for `Cc1ccc(-c2noc(C)c2Cn2ncc(N3CCO[C@@H](C)C3)cc2=O)cn1` [Example 89, 2-[[5-methyl-3-(6-methyl-3-pyridyl)isoxazol-4-yl]methyl]-5-[(2S)-2-methylmorpholin-4-yl]pyridazin-3-one], on h-GABA-A α5β3γ2 [1], the “Efficacy (GABA) %” value turned out to be 189% and the “Fold increase h-GABA-A α5β3γ2 oocyte” value turned out to be 2.89. The same compound had a Ki on h-GABA-A α5β3γ2 [2] of 0.0014 µM.

As for `Cc1ccc(-c2noc(C)c2Cn2ncc(N3CC[C@@H](OC(C)(C)C)C3)cc2=O)cn1` [Example 90, 5-[(3R)-3-tert-butoxypyrrolidin-1-yl]-2-[[5-methyl-3-(6-methyl-3-pyridyl)isoxazol-4-yl]methyl]pyridazin-3-one], at h-GABA-A α5β3γ2 [1], the “Efficacy (GABA) %” value is listed as 109% and the “Fold increase h-GABA-A α5β3γ2 oocyte” value came out at 2.09. This compound also yielded a Ki at h-GABA-A α5β3γ2 [2] of 0.0248 µM.

Take `Cc1ccc(-c2nocc2Cn2ncc(N3CCO[C@@H](C)C3)cc2=O)cn1` [Example 91, 5-[(2S)-2-methylmorpholin-4-yl]-2-[[3-(6-methyl-3-pyridyl)isoxazol-4-yl]methyl]pyridazin-3-one]: on h-GABA-A α5β3γ2 [1], the “Efficacy (GABA) %” value was 157% and the “Fold increase h-GABA-A α5β3γ2 oocyte” value was 2.57. The same compound displayed a Ki on h-GABA-A α5β3γ2 [2] of 0.0217 µM.

As to `Cc1ccc(-c2nocc2Cn2ncc(N3CCO[C@H](C)C3)cc2=O)cn1` [Example 92, 5-[(2R)-2-methylmorpholin-4-yl]-2-[[3-(6-methyl-3-pyridyl)isoxazol-4-yl]methyl]pyridazin-3-one], on h-GABA-A α5β3γ2 [1], the “Efficacy (GABA) %” value was determined as 167% and the “Fold increase h-GABA-A α5β3γ2 oocyte” value turned out to be 2.67. In addition, the Ki at h-GABA-A α5β3γ2 [2] was 0.0256 µM.

Consider `Cc1ccc(-c2noc(C)c2Cn2ncc(N3C[C@@H](C)N[C@@H](C)C3)cc2=O)cn1` [Example 93, 5-[(3R,5S)-3,5-dimethylpiperazin-1-yl]-2-[[5-methyl-3-(6-methyl-3-pyridyl)isoxazol-4-yl]methyl]pyridazin-3-one], for which, at h-GABA-A α5β3γ2 [1], the “Efficacy (GABA) %” value is reported as 125% and the “Fold increase h-GABA-A α5β3γ2 oocyte” value was found to be 2.25. The compound also yielded a Ki at h-GABA-A α5β3γ2 [2] of 0.0016 µM.

Turning to `Cc1ccc(-c2noc(C)c2Cn2ncc(N3CC(Oc4ccccc4)C3)cc2=O)cn1` [Example 94, 2-[[5-methyl-3-(6-methyl-3-pyridyl)isoxazol-4-yl]methyl]-5-(3-phenoxyazetidin-1-yl)pyridazin-3-one], on h-GABA-A α5β3γ2 [1], the “Efficacy (GABA) %” value was 136% and the “Fold increase h-GABA-A α5β3γ2 oocyte” value stood at 2.36. The Ki at h-GABA-A α5β3γ2 [2] was determined as 0.0078 µM.

As for `Cc1ccc(-c2noc(C)c2Cn2ncc(N3CC4(CCCO4)C3)cc2=O)cn1` [Example 95, 2-[[5-methyl-3-(6-methyl-3-pyridyl)isoxazol-4-yl]methyl]-5-(5-oxa-2-azaspiro[3.4]octan-2-yl)pyridazin-3-one], at h-GABA-A α5β3γ2 [1], the “Efficacy (GABA) %” value is listed as 115% and the “Fold increase h-GABA-A α5β3γ2 oocyte” value was determined as 2.15. On h-GABA-A α5β3γ2 [2], this compound displayed a Ki of 0.0308 µM.

Regarding `Cc1ccc(-c2noc(C)c2Cn2ncc(NC3CN(C4CC4)C3)cc2=O)cn1` [Example 96, 5-((1-cyclopropylazetidin-3-yl)amino)-2-((5-methyl-3-(6-methylpyridin-3-yl)isoxazol-4-yl)methyl)pyridazin-3(2H)-one], on h-GABA-A α5β3γ2 [1], the “Efficacy (GABA) %” value was 132% and the “Fold increase h-GABA-A α5β3γ2 oocyte” value is reported as 2.32. The compound also had a Ki on h-GABA-A α5β3γ2 [2] of 0.013 µM.

Take `Cc1ccc(-c2noc(C)c2Cn2ncc(N3CCC3)cc2=O)cn1` [Example 97, 5-(azetidin-1-yl)-2-[[5-methyl-3-(6-methyl-3-pyridyl)isoxazol-4-yl]methyl]pyridazin-3-one]: at h-GABA-A α5β3γ2 [1], the “Efficacy (GABA) %” value amounted to 106% and the “Fold increase h-GABA-A α5β3γ2 oocyte” value turned out to be 2.06. Also, the Ki at h-GABA-A α5β3γ2 [2] came out at 0.0086 µM.

With `Cc1ccc(-c2noc(C)c2Cn2ncc(N3CC(C)(O)C3)cc2=O)cn1` [Example 98, 5-(3-hydroxy-3-methyl-azetidin-1-yl)-2-[[5-methyl-3-(6-methyl-3-pyridyl)isoxazol-4-yl]methyl]pyridazin-3-one], on h-GABA-A α5β3γ2 [1], the “Efficacy (GABA) %” value came out at 132% and the “Fold increase h-GABA-A α5β3γ2 oocyte” value worked out at 2.32. Also, the Ki on h-GABA-A α5β3γ2 [2] is 0.0073 µM.

For the compound `CCOC1CN(c2cnn(Cc3c(-c4ccc(C)nc4)noc3C)c(=O)c2)C1` [Example 99, 5-(3-ethoxyazetidin-1-yl)-2-[[5-methyl-3-(6-methyl-3-pyridyl)isoxazol-4-yl]methyl]pyridazin-3-one], on h-GABA-A α5β3γ2 [1], the “Efficacy (GABA) %” value worked out at 134% and the “Fold increase h-GABA-A α5β3γ2 oocyte” value was found to be 2.34. Further, at h-GABA-A α5β3γ2 [2], the Ki stood at 0.0144 µM.

Regarding `Cc1ccc(-c2noc(C)c2Cn2ncc(N3CC4CC(C3)O4)cc2=O)cn1` [Example 100, 2-[[5-methyl-3-(6-methyl-3-pyridyl)isoxazol-4-yl]methyl]-5-(6-oxa-3-azabicyclo[3.1.1]heptan-3-yl)pyridazin-3-one], on h-GABA-A α5β3γ2 [1], the “Efficacy (GABA) %” value stood at 105% and the “Fold increase h-GABA-A α5β3γ2 oocyte” value was 2.05. Moreover, the Ki at h-GABA-A α5β3γ2 [2] turned out to be 0.0122 µM.

As for `COc1ncccc1N1CCN(c2cnn(Cc3c(-c4ccc(C)nc4)noc3C)c(=O)c2)CC1` [Example 101, 5-[4-(2-methoxy-3-pyridyl)piperazin-1-yl]-2-[[5-methyl-3-(6-methyl-3-pyridyl)isoxazol-4-yl]methyl]pyridazin-3-one], at h-GABA-A α5β3γ2 [1], the “Efficacy (GABA) %” value is 146% and the “Fold increase h-GABA-A α5β3γ2 oocyte” value is 2.46. In addition, at h-GABA-A α5β3γ2 [2], the Ki is 0.0032 µM.
